PMC3533232, “Isolation of the bioactive peptides CCHamide-1 and CCHamide-2 from Drosophila and their putative role in appetite regulation as ligands for G protein-coupled receptors” (Frontiers in Endocrinology, 2012)
Where a SMILES comes first, the peptide text is derived from it. Bridges are numbered along the chain shown (N, C = ends). Where no end group is shown, it is not given here.

Tests used:
[1] = tested on: CHO cells transfected with the vector alone; test: [Ca2+]i response in CHO cells transfected with the vector alone; assay type: cell-based, Chinese hamster; conditions: data not shown
Procedure: (§1) An assay system using CG30106- or CG14593-expressing cells was prepared as previously described ([Ida et al., 2011a],[b]). The full-length cDNA of Drosophila CG30106 (GenBank accession number: NM_136355; residues […] to 1700) and CG14593 (GenBank accession number: NM_136355; residues 656–2185) was obtained by RT-PCR using Drosophila cDNA as the template. The sense and antisense primers for CG30106 were 5′-[…]-3′ and 5′-[…]-3′, respectively. The sense and antisense primers for CG14593 were 5′-[…]-3′ and 5′-[…]-3′, respectively. The amplified cDNA was ligated into the pcDNA3.1 vector (Invitrogen). The expression vector, i.e., CG30106 or CG14593-pcDNA3.1, was transfected into Chinese hamster ovary (CHO) cells by using with Fugene6 transfection reagent (Roche), and stably expressing cells were selected using 1 mg/ml G418. […] Changes in intracellular Ca^2^+ concentrations ([Ca^2^+]i) were measured using the FlexStation 3 fluorometric imaging plate reader to conduct high-throughput measurements of intracellular Ca^2^+ concentration (Molecular Devices, CA, USA; [Marshall et al., 2005]). […] The cells were incubated with 100 μl of Calcium 4 assay kit reagent (Molecular Devices) for 1 h, and then 50 μl of each sample was added to the CHO-CG30106 or CHO-CG14593 cells to induce changes in fluorescence. The maximum [Ca^2^+]i changes were recorded. […]

[2] = tested on: blowfly Phormia regina; test: Proboscis extension reflex (PER) test; assay type: in vivo; conditions: 30 min after injection of 10 pmol (1 μl) into the shoulder, linger solution control 236 mM, p < 0.05, five sets of 20 flies
Procedure: The proboscis extension reflex (PER) test and feeding test were performed for the blowfly Phormia regina as previously described ([Nisimura et al., 2005]; [Ida et al., 2011a]). CCHamide-2 was dissolved in blowfly linger solution at a concentration of […]. Twenty flies were secured by their wings using washing pins, and the first PER test was performed by using 12 steps of sucrose concentrations that had been prepared by twofold serial dilutions in distilled water, beginning from a sucrose concentration of 1 M. We investigated the PER in three different groups of 20 flies each: no injection, fly linger injection, and fly linger plus peptide injection. The PER tests were performed 30 min after 1 μl of blowfly linger solution with or without peptide was injected into the shoulder of each fly. We repeated five sets of PER tests each, in which 20 flies were used in each batch.
Results are presented as the mean ± SEM for each group. To compare the PER thresholds among the three groups, we used a non-parametric Steel–Dwass test. The criterion for statistical significance was p < 0.05 for all tests. The statistical software program GraphPad PRISM (GraphPad software, CA, USA) was used for analyses.
In contrast, no difference was observed between the mean PER threshold without any injection and 30 min after linger solution injection (222 and 236 mM, respectively, p > 0.05). […]

[3] = tested on: flies; conditions: administration of CCHamide-2; ref Hiraguchi et al., paper in preparation; cited from earlier work
Text: In addition, CCHamide-1 and CCHamide-2 have been detected in the nervous system and midgut in a mass spectrometry study performed by [Reiher et al. (2011)]. […] It is generally accepted that brain–gut peptides regulate feeding behavior in mammals ([Williams et al., 2001]). These peptides include neuropeptide Y, peptide YY, gastrin-releasing peptide, vasoactive inte ...

[4] = biological target: T1, CG14593 (Drosophila melanogaster, UniProt Q4V622); test: [Ca2+]i assay in CHO-CG14593 cells (FlexStation 3); assay type: cell-based; conditions: synthetic peptide not generated; predicted from amount of purified peptide and specific activity
T1 construct: expressed in transfected cells
T1 sequence (Q4V622 1-489): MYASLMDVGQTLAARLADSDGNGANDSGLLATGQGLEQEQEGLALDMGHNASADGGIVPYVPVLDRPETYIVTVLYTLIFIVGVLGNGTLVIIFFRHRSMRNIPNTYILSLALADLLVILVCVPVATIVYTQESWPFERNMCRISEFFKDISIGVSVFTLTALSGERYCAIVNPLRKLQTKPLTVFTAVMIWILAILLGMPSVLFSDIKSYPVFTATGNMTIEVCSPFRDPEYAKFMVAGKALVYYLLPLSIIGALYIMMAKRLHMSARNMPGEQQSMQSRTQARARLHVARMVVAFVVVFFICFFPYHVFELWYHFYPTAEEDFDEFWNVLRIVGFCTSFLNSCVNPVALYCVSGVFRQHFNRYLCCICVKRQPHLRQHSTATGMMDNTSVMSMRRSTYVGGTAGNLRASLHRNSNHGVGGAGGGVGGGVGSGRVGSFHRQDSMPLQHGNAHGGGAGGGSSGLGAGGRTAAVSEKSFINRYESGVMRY
Procedure: as §1

Molecule | [Ca2+]i response in vector-only CHO cells [1] | mean PER threshold (sucrose concentration at which 50% of flies show PER) [2] [mM] | sucrose intake [3] | predicted potency for activating CG14593 [4]
CC(C)C[C@@H]1NC(=O)[C@@H](NC(=O)[C@@H](N)CO)CSSC[C@@H](C(=O)N[C@@H](Cc2c[nH]c3ccccc23)C(=O)NCC(=O)N[C@@H](C)C(=O)N[C@@H](Cc2c[nH]cn2)C(N)=O)NC(=O)[C@H](CO)NC(=O)[C@H](Cc2c[nH]cn2)NC(=O)CNC(=O)[C@H](Cc2ccc(O)cc2)NC(=O)[C@H](CCC(=O)O)NC1=O [CCHamide-1] (H-SCLEYGHSCWGAH-NH2; disulfide 2-9) | Neither CCHamide-2 nor CCHamide-1 induced a response | – | – | –
CC(C)[C@@H]1NC(=O)[C@H](Cc2c[nH]cn2)NC(=O)CNC(=O)[C@H](Cc2ccc(O)cc2)NC(=O)[C@H](C)NC(=O)[C@H](CCC(N)=O)NC(=O)[C@@H](NC(=O)CN)CSSC[C@@H](C(=O)N[C@@H](Cc2ccc(O)cc2)C(=O)NCC(=O)NCC(=O)N[C@@H](Cc2c[nH]cn2)C(N)=O)NC1=O [CCHamide-2] (H-GCQAYGHVCYGGH-NH2; disulfide 2-9) | Neither CCHamide-2 nor CCHamide-1 induced a response | 77.2 | significantly increased | –
KKGCQAYGHVCYGGH-NH2 (disulfide 4-11 (inferred); N-terminus assumed; SMILES CC(C)[C@@H]1NC(=O)[C@H](Cc2c[nH]cn2)NC(=O)CNC(=O)[C@H](Cc2ccc(O)cc2)NC(=O)[C@H](C)NC(=O)[C@H](CCC(N)=O)NC(=O)[C@@H](NC(=O)CNC(=O)[C@H](CCCCN)NC(=O)[C@@H](N)CCCCN)CSSC[C@@H](C(=O)N[C@@H](Cc2ccc(O)cc2)C(=O)NCC(=O)NCC(=O)N[C@@H](Cc2c[nH]cn2)C(N)=O)NC1=O) [N-terminal extended form of CCHamide-2 purified from flies; not synthesized] | – | – | – | high potency similar to that of other forms of CCHamide-2
